Source: patent publication US9676757B2, “Heterocyclic compounds as NaV channel inhibitors and uses thereof” (Merck Patent GmbH, priority 2014, dated 2017)
Where two headings read alike, the source gives them in different places.

Target: Nav1.6 (Homo sapiens, UniProt Q9UQD0)
Test: Nav two-pulse protocol, IonWorks Quattro electrophysiology
Type: cell-based
Settings: -120 mV to 0 mV, compound incubated 300 s
Description: Compound Plate Preparation
Supplied compounds were sent as Assay Ready Plates, with 2 μL per well of compound in DMSO at 300× the final assay concentrations as described above and in the project proposal. All assay plates are stored at in a −80° C. freezer.
On the day of the assay, 198 μL of external solution was added to the appropriate assay plate and mixed thoroughly. This provided a 1:100 dilution. A further 1:3 dilution occurred upon addition to the cells in the IonWorks, giving a 1:300 dilution in total.
On each assay plate, at least 8 wells were reserved for vehicle control (0.3% DMSO) and at least 8 wells for each positive control specific to the cell line tested. The positive controls were tested in an 8-point dose response with 3-fold dilutions to determine an IC50 value for each run. The positive control compounds are outlined below.
Ion Channel Positive Control & Concentrations
Nav1.6/1.2 Lidocaine: 8, 3-fold dilutions starting at 100 μM
Electrophysiological Recording Solutions
The solutions for recording currents were are follows:
Amphotericin B was used to obtain electrical access to the cell interior at a final concentration of 200 μg/ml in internal recording solution.
Experimental Protocols & Data Analysis
Nav currents were evoked by stepping from a holding potential of −120 mV to 0 mV for 2.5 s (pulse 1), followed by a 5 ms inter-pulse interval, and stepping from a holding potential of −120 mV to 0 mV for 20 ms (pulse 2). The voltage protocol was applied (Pre), compounds added, incubated for 300 seconds, and the voltage protocol was applied a final time (Post) on the IonWorks Quattro.
The parameters measured were the maximum inward current evoked on stepping to 0 mV from the 1st and 2nd pulse. All data were filtered for seal quality, seal drop, and current amplitude. The peak current amplitude (Peak) was calculated before (Pre) and after (Post) compound addition to the amount of block was assessed by dividing the Post-compound current amplitude by the Pre-compound current amplitude. These procedures were implemented for the 1st and 2nd pulse.

Sequence of Nav1.6 (Q9UQD0 whole entry): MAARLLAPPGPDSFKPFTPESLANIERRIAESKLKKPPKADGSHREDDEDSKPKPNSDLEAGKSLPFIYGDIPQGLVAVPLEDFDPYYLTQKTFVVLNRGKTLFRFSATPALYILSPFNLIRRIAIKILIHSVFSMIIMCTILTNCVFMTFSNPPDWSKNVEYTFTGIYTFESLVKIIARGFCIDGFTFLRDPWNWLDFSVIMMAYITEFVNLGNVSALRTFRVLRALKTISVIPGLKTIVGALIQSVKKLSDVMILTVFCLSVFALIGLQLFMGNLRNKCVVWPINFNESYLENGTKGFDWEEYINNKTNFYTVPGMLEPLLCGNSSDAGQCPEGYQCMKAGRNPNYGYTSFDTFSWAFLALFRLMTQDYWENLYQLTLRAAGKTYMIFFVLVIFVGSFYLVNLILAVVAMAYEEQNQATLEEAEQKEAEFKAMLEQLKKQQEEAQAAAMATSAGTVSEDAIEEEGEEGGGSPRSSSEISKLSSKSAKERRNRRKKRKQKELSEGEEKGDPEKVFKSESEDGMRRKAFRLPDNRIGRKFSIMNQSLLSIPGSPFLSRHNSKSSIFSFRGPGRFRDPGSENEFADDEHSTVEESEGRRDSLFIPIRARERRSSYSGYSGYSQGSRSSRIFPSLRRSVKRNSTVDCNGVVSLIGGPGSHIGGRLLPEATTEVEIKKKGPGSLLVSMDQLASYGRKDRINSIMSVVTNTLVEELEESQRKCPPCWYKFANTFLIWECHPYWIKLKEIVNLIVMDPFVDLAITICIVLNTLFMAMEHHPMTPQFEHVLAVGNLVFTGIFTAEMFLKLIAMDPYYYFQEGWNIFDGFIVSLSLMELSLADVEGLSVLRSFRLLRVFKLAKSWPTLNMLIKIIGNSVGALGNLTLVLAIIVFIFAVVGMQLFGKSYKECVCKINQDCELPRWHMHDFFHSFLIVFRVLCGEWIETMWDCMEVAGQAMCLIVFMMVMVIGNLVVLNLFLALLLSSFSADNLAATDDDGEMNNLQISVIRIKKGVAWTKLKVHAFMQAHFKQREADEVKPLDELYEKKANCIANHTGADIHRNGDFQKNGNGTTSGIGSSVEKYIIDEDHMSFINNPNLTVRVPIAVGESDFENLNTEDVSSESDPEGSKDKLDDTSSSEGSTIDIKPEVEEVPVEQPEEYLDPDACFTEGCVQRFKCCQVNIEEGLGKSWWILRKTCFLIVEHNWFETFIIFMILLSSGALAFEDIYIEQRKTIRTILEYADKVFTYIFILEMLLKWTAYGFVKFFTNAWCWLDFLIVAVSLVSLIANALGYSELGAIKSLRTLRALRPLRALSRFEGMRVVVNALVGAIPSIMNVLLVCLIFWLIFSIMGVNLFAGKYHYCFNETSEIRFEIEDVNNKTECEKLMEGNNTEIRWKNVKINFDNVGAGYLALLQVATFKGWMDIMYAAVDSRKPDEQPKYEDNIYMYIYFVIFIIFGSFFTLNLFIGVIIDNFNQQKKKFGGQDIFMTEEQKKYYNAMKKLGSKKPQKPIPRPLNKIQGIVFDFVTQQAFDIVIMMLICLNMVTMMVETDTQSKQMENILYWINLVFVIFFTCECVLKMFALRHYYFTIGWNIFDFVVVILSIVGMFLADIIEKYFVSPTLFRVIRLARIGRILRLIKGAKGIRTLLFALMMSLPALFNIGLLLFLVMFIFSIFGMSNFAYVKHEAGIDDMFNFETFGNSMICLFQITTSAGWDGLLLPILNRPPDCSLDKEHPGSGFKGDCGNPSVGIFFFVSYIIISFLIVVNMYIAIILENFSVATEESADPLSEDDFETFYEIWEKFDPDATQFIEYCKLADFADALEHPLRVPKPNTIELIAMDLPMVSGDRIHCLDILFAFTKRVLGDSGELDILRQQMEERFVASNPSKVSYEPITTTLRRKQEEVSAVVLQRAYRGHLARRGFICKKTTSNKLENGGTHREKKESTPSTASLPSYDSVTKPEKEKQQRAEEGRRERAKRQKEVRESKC

**Q.** Which IC50 (read-out: Nav1.6 Tonic) does the source give for O=C(NCc1ccccc1C(F)(F)F)C1CCN(Cc2cccc(Oc3ccccc3)c2)C1 (stereo not shown) [Compound 72, 1-(3-Phenoxy-benzyl)-pyrrolidine-3-carboxylic acid 2-trifluoromethyl-benzylamide] here?
**A.** Its IC50 is 10 to 20 µM.

**Q.** And the IC50 (read-out: Nav1.6 inac)?
**A.** The IC50 was 1 to 5 µM.

**Q.** Which IC50 (read-out: Nav1.6 Tonic) does the source give for O=C(NCc1cccc(C(F)(F)F)n1)C1CCN(Cc2cccc(OCC(F)(F)F)c2)C1 (stereo not shown) [Compound 92, 1-[3-(2,2,2-Trifluoro-ethoxy)-benzyl]-pyrrolidine-3-carboxylic acid (6-trifluoromethyl-pyridin-2-ylmethyl)-amide] here?
**A.** The IC50 was greater than 20 µM.

**Q.** And the IC50 (read-out: Nav1.6 inac)?
**A.** The IC50 was 1 to 5 µM.

**Q.** What does the source list for COc1cccc(Oc2cccc(CN3CCC(F)(C(=O)NCc4ccccn4)C3)c2)c1 (stereo not shown) [Compound 23, 3-Fluoro-1-[3-(3-methoxy-phenoxy)-benzyl]-pyrrolidine-3-carboxylic acid (pyridin-2-ylmethyl)-amide]?
**A.** IC50 (read-out: Nav1.6 Tonic): > 20 µM; IC50 (read-out: Nav1.6 inac): 1 to 5 µM

**Q.** Which IC50 (read-out: Nav1.6 Tonic) does the source give for COc1cccc(-c2nc(C3CCN(Cc4cccc(OCC(C)C)c4)C3)no2)n1 (stereo not shown) [Compound 56, 2-{3-[1-(3-Isobutoxy-benzyl)-pyrrolidin-3-yl]-[1,2,4]oxadiazol-5-yl}-6-methoxy-pyridine] here?
**A.** Its IC50 is greater than 20 µM.

**Q.** What about the IC50 (read-out: Nav1.6 inac) of the same compound?
**A.** Its IC50 is 1 to 5 µM.

**Q.** For Cc1cccc(Oc2cccc(CN3CCC(C(=O)NCc4ccccn4)C3)c2)c1 (stereo not shown) [Compound 43, 1-(3-m-Tolyloxy-benzyl)-pyrrolidine-3-carboxylic acid (pyridin-2-ylmethyl)-amide], which IC50 (read-out: Nav1.6 Tonic) is on record?
**A.** The IC50 was greater than 20 µM.

**Q.** And the IC50 (read-out: Nav1.6 inac)?
**A.** Its IC50 is greater than 5 µM.

**Q.** CC(C)COc1cccc(CN2CCC(c3noc(-c4cc(Br)ccn4)n3)C2)c1 (stereo not shown) [Compound 58, 4-Bromo-2-{3-[1-(3-isobutoxy-benzyl)-pyrrolidin-3-yl]-[1,2,4]oxadiazol-5-yl}-pyridine] was tested. Which IC50 (read-out: Nav1.6 Tonic) did it give?
**A.** Its IC50 is greater than 20 µM.

**Q.** And the IC50 (read-out: Nav1.6 inac)?
**A.** Its IC50 is greater than 5 µM.

**Q.** Which results are given for CC1(C)Oc2ccc(CN3CCC(C(=O)NCc4ccccn4)C3)cc2O1 (stereo not shown) [Compound 33, 1-(2,2-Dimethyl-benzo[1,3]dioxol-5-ylmethyl)-pyrrolidine-3-carboxylic acid (pyridin-2-ylmethyl)-amide]?
**A.** IC50 (read-out: Nav1.6 Tonic): > 20 µM; IC50 (read-out: Nav1.6 inac): 1 to 5 µM

**Q.** For Cc1ccc(Oc2cccc(CN3CCC(C(=O)NCc4ccccn4)C3)c2)cc1C (stereo not shown) [Compound 10, 1-[3-(3,4-Dimethyl-phenoxy)-benzyl]-pyrrolidine-3-carboxylic acid (pyridin-2-ylmethyl)-amide], which IC50 (read-out: Nav1.6 Tonic) is on record?
**A.** The IC50 was 10 to 20 µM.

**Q.** What about the IC50 (read-out: Nav1.6 inac) of the same compound?
**A.** The IC50 was 1 to 5 µM.

**Q.** Which results are given for Cc1ccc(Oc2cccc(CN3CCC(C(=O)NCc4ccccn4)C3)c2)cc1 (stereo not shown) [Compound 1, 1-(3-p-Tolyloxy-benzyl)-pyrrolidine-3-carboxylic acid (pyridin-2-ylmethyl)-amide]?
**A.** IC50 (read-out: Nav1.6 Tonic): > 20 µM; IC50 (read-out: Nav1.6 inac): < 1 µM

**Q.** What does the source list for CC1(C)Cc2cc(CN3CCC(C(=O)NCc4ccccn4)C3)ccc2O1 (stereo not shown) [Compound 32, 1-(2,2-Dimethyl-2,3-dihydro-benzofuran-5-ylmethyl)-pyrrolidine-3-carboxylic acid (pyridin-2-ylmethyl)-amide]?
**A.** IC50 (read-out: Nav1.6 Tonic): > 20 µM; IC50 (read-out: Nav1.6 inac): 1 to 5 µM

**Q.** How did the IC50 (read-out: Nav1.6 Tonic) turn out when C[C@@]1(C(=O)NCc2ccccn2)CCN(Cc2cccc(Oc3ccccc3)c2)C1 [Compound 37, (R)-3-methyl-1-(3-phenoxybenzyl)-N-(pyridin-2-ylmethyl)pyrrolidine-3-carboxamide] was run?
**A.** The IC50 was greater than 20 µM.

**Q.** What about the IC50 (read-out: Nav1.6 inac) of the same compound?
**A.** Its IC50 is 1 to 5 µM.

**Q.** O=C(NCc1ccccn1)C1CCN(Cc2cccc(Oc3ccccc3F)c2)C1 (stereo not shown) [Compound 14, 1-[3-(2-Fluoro-phenoxy)-benzyl]-pyrrolidine-3-carboxylic acid (pyridin-2-ylmethyl)-amide] was tested. Which IC50 (read-out: Nav1.6 Tonic) did it give?
**A.** The IC50 was greater than 20 µM.

**Q.** What about the IC50 (read-out: Nav1.6 inac) of the same compound?
**A.** Its IC50 is greater than 5 µM.

**Q.** Which IC50 (read-out: Nav1.6 Tonic) does the source give for COc1ccc(Oc2cccc(CN3CCC(C(=O)NCc4ccccn4)C3)n2)cc1 (stereo not shown) [Compound 19, 1-[6-(4-Methoxy-phenoxy)-pyridin-2-ylmethyl]-pyrrolidine-3-carboxylic acid (pyridin-2-ylmethyl)-amide] here?
**A.** The IC50 was greater than 20 µM.

**Q.** And the IC50 (read-out: Nav1.6 inac)?
**A.** The IC50 was 1 to 5 µM.

**Q.** With Cc1cccnc1CNC(=O)C1CCN(Cc2cccc(OCC(F)(F)F)c2)C1 (stereo not shown) [Compound 90, 1-[3-(2,2,2-Trifluoro-ethoxy)-benzyl]-pyrrolidine-3-carboxylic acid (3-methyl-pyridin-2-ylmethyl)-amide] as the compound, how does the IC50 (read-out: Nav1.6 Tonic) read?
**A.** The IC50 was greater than 20 µM.

**Q.** What about the IC50 (read-out: Nav1.6 inac) of the same compound?
**A.** The IC50 was 1 to 5 µM.
